The target in assay [1] is T1, MMP-2 (Homo sapiens, UniProt P08253).
T1 construct: purchased Oncogene Research Products (Calbiochem) PF023
T1 sequence (P08253 110-660): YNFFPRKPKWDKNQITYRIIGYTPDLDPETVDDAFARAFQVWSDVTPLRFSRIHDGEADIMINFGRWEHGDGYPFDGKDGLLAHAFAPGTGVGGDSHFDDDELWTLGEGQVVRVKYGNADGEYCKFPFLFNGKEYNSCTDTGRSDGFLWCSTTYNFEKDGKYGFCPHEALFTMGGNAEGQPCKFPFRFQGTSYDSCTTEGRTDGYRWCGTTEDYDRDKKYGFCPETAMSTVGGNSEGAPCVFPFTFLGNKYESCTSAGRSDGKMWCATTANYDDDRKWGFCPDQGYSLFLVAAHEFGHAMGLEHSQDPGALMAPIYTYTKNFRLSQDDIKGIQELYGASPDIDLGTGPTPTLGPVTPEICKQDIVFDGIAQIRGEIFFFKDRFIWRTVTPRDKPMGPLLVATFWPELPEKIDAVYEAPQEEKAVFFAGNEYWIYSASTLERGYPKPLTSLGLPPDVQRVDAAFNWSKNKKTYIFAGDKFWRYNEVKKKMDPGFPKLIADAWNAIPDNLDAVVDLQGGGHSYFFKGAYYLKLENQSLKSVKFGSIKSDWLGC
Briefly: In-vitro fluorescence assay of MMP-2 activity. It is filed as biochemical. Particulars: recombinant human MMP-2; read-out: MMP-2 IC50.
Excerpt: A continuous assay was used in which the substrate is a synthetic peptide containing a fluorescent group (7-methoxycoumarin; Mca) which is quenched by energy transfer to a 2,4-dinitrophenyl group. […] The source of enzyme in the assay was the recombinant human MMP-2 (66 kDa) purchased from Oncogene Research Products (catalog number PF023 from Calbiochem). The substrate used was Mca-PQGL-(3-[2,4-dinitrophenyl]-L-2,3-diaminopropionyl)-AR-OH (denoted as Wammp-5, custom synthesized by AnaSpec, Inc.). The assay buffer consisted of 50 mM Hepes (pH 7.4), 100 mM NaCl, 5 mM CaCl2, and 0.005% Brij-35. […] The enzymatic reactions were initiated by adding the substrate to a final concentration of 20 μM, and mixing 10 times with a pipette. The final DMSO concentration in the assay was 6.0%.
Plots of the inhibitor concentration vs. the percent inhibition were fit to the following equation: y=(a−d)/[1+(x/c)^b]+d, a general sigmoidal curve with Hill slope, a to d. x is the inhibitor concentration under test. y is the percent inhibition. a is the limiting response as x approaches zero. As x increases without bound, y tends toward its limit d. c is the inflection point (IC50) for the curve. That is, y is halfway between the lower and upper asymptotes when x=c. b is the slope factor or Hill coefficient.

The target in assay [2] is T2, MMP-13 (Homo sapiens, UniProt P45452).
T2 construct: made in house
Kind of assay: In-vitro fluorescence assay of MMP-13 activity. The assay is classed as biochemical. Particulars: recombinant human catalytic domain of MMP-13; read-out: MMP-13 IC50.

For `Cc1c(C(=O)Nc2ccc(-c3ccc(S(=O)(=O)N[C@H](C(=O)O)C(C)O)cc3)nc2)oc2cccc(NS(C)(=O)=O)c12` (stereo partly drawn) [Example 38, L-3-Hydroxy-2-(4-{5-[(4-methanesulfonylamino-3-methyl-benzofuran-2-carbonyl)-amino]-pyridin-2-yl}-benzenesulfonylamino)-butyric acid], the IC50 in assay [1] turned out to be 8890 nM; in assay [2], 28 nM. The corresponding values for `Cc1c(C(=O)Nc2ccc(-c3ccc(S(=O)(=O)N[C@H](C(=O)O)C(C)C)cc3)cc2)oc2cccc(O)c12` [Example 161, L-2-{4′-[(4-Hydroxy-3-methyl-benzofuran-2-carbonyl)-amino]-biphenyl-4-sulfonylamino}-3-methyl-butyric acid] are 379 nM and 6.1 nM. The corresponding values for `CCC(=O)Nc1cccc2oc(C(=O)Nc3ccc(-c4ccc(S(=O)(=O)N[C@H](C(=O)O)C(C)C)cc4)cc3)c(C)c12` [Example 49, L-3-Methyl-2-{4′-[(3-methyl-4-propionylamino-benzofuran-2-carbonyl)-amino]-biphenyl-4-sulfonylamino}-butyric acid] are 5770 nM and 35 nM.

As for `CC(C)[C@H](NS(=O)(=O)c1ccc(-c2ccc(NC(=O)c3oc4ccccc4c3-c3ccccc3)cc2)cc1)C(=O)O` [Example 54, L-3-Methyl-2-{4′-[(3-phenyl-benzofuran-2-carbonyl)-amino]-biphenyl-4-sulfonylamino}-butyric acid], in assay [2], the half-maximal inhibitory concentration (IC50) came out at 220 nM. Turning to `CCCOc1cccc2oc(C(=O)Nc3ccc(-c4ccc(S(=O)(=O)N[C@H](C(=O)O)C(C)C)cc4)cc3)c(C)c12` [Example 107, (S)-3-Methyl-2-{4′-[(3-methyl-4-propoxy-benzofuran-2-carbonyl)-amino]-biphenyl-4-sulfonylamino}-butyric acid], the results for the half-maximal inhibitory concentration (IC50) in assay [1] and in assay [2] were 4220 nM and 11 nM, respectively. The like results for `COc1c(Br)ccc2oc(C(=O)Nc3ccc(-c4ccc(S(=O)(=O)NC(C(=O)O)C(C)C)cc4)cc3)c(C)c12` (stereo in doubt) [Example 119, (R)-2-{4′-[(5-Bromo-4-methoxy-3-methyl-benzofuran-2-carbonyl)-amino]-biphenyl-4-sulfonylamino}-3-methyl-butyric acid] were, in that order, 688 nM and 3.4 nM. The corresponding values for `Cc1c(C(=O)Nc2ccc(-c3ccc(S(=O)(=O)N[C@H](C(=O)O)C(C)C)cc3)cc2)oc2cccc(OCC(=O)O)c12` [Example 159, L-2-{4′-[(4-Carboxymethoxy-3-methyl-benzofuran-2-carbonyl)-amino]-biphenyl-4-sulfonylamino}-3-methyl-butyric acid] are 3520 nM and 8.5 nM. As for `Cc1c(C(=O)Nc2ccc(-c3ccc(S(=O)(=O)N[C@H](C(=O)O)C(C)C)cc3)cc2)oc2cccc(C(C)O)c12` (stereo partly drawn) [Example 95, N-{[4′-({[4-(1-Hydroxyethyl)-3-methyl-1-benzofuran-2-yl]carbonyl}amino)-1,1′-biphenyl-4-yl]sulfonyl}-L-valine], the IC50 in assay [1] came out at 2070 nM; in assay [2] it was 8.4 nM. The like results for `Cc1c(C(=O)Nc2ccc(-c3ccc(S(=O)(=O)N[C@H](C(=O)O)C(C)C)cc3)cc2)oc2cccc(CCCO)c12` [Example 27, L-2-(4′-{[4-(3-Hydroxy-propyl)-3-methyl-benzofuran-2-carbonyl]-amino}-biphenyl-4-sulfonylamino)-3-methyl-butyric acid] were, in that order, 4410 nM and 7.1 nM.

Take `CC(C)[C@@H](NS(=O)(=O)c1ccc(-c2ccc(OCc3nc4ccccc4n3C)cc2)cc1)C(=O)O` [Example 138, D-3-Methyl-2-[4′-(1-methyl-1H-benzoimidazol-2-ylmethoxy)-biphenyl-4-sulfonylamino]-butyric acid]: the IC50 in assay [1] is 1120 nM; in assay [2] it was 89.3 nM.

Turning to `CC(C)[C@H](NS(=O)(=O)c1ccc(-c2ccc(NC(=O)c3cc4cc(N)ccc4o3)cc2)cc1)C(=O)O` [Example 7, N-[(4′-{[(5-amino-1-benzofuran-2-yl)carbonyl]amino}-1,1′-biphenyl-4-yl)sulfonyl]-L-valine], the IC50 in assay [2] was 1.5 nM. In the case of `COc1c(C(C)=O)ccc2oc(C(=O)Nc3ccc(-c4ccc(S(=O)(=O)N[C@H](C(=O)O)C(C)C)cc4)cc3)c(C)c12` [Example 121, (S)-2-{4′-[(5-Acetyl-4-methoxy-3-methyl-benzofuran-2-carbonyl)-amino]-biphenyl-4-sulfonylamino}-3-methyl-butyric acid], the IC50 in assay [2] was found to be 1020 nM.

For the compound `CC(C)[C@@H](C(=O)O)N(Cc1cccnc1)S(=O)(=O)c1ccc(-c2ccc(NC(=O)c3cc4ccccc4o3)cc2)cc1` [Example 81, N-({4′-[(1-Benzofuran-2-ylcarbonyl)amino]-1,1′-biphenyl-4-yl}sulfonyl)-N-(pyridin-3-ylmethyl)-L-valine], in assay [2], the IC50 turned out to be 323 nM. Consider `CC(C)[C@H](NS(=O)(=O)c1ccc(-c2ccc(NC(=O)c3cc4c(OCc5ccccc5)cccc4o3)cc2)cc1)C(=O)O` [Example 13, 4′-[(4-Benzyloxy-benzofuran-2-carbonyl)-amino]-biphenyl-4-sulfonyl-L-valine], for which the IC50 in assay [1] stood at 62 nM. `CC(C)[C@H](NS(=O)(=O)c1ccc(-c2ccc(NC(=O)c3oc4cccc5c4c3CN(C)CC5)cc2)cc1)C(=O)O` [Example 85, N-[(4′-{[(4-Methyl-3,4,5,6-tetrahydrofuro[4,3,2-ef][3]benzazepin-2-yl)carbonyl]amino}-1,1′-biphenyl-4-yl)sulfonyl]-L-valine]: the IC50 in assay [2] worked out at 294 nM. Consider `CC(C)[C@@H](C(=O)O)N(C)S(=O)(=O)c1ccc(-c2ccc(NC(=O)c3cc4ccccc4o3)cc2)cc1` [Example 78, N-({4′-[(1-Benzofuran-2-ylcarbonyl)amino]-1,1′-biphenyl-4-yl}sulfonyl)-N-methyl-L-valine], for which, in assay [2], the IC50 was determined as 5600 nM. On the same count and under the same terms, under `CC(C)[C@H](NS(=O)(=O)c1ccc(-c2ccc(NC(=O)c3cc4ccccc4o3)cn2)cc1)C(=O)O` [Example 76, 4-{5-[(Benzofuran-2-carbonyl)-amino]-pyridin-2-yl}-benzenesulfonyl-L-valine] stands 3.1 nM; under `CC(C)[C@H](NS(=O)(=O)c1ccc(-c2ccc(NS(=O)(=O)c3cccs3)cc2)cc1)C(=O)O` [Example 170, (S)-3-Methyl-2-[4′-(thiophene-2-sulfonylamino)-biphenyl-4-sulfonylamino]-butyric acid], 2870 nM; under `COc1cccc2cc(C(=O)Nc3ccc(-c4ccc(S(=O)(=O)N[C@H](C(=O)O)C(C)C)cc4)cc3)oc12` [Example 5, N-[(4′-{[(7-methoxy-1-benzofuran-2-yl)carbonyl]amino}-1,1′-biphenyl-4-yl)sulfonyl]-L-valine], 10.4 nM. Same read-out and setting: the value for `C=C(Cl)c1ccc2oc(C(=O)Nc3ccc(-c4ccc(S(=O)(=O)N[C@H](C(=O)O)C(C)C)cc4)cc3)c(C)c2c1OC` [Example 122, (S)-2-(4′-{[5-(1-Chloro-vinyl)-4-methoxy-3-methyl-benzofuran-2-carbonyl]-amino}-biphenyl-4-sulfonylamino)-3-methyl-butyric acid] was 222 nM; that for `COc1cc(OC)c2c(C)c(C(=O)Nc3ccc(-c4ccc(S(=O)(=O)N[C@H](C(=O)O)C(C)C)cc4)cc3)oc2c1C` [Example 44, L-2-{4′-[(4,6-Dimethoxy-3,7-dimethyl-benzofuran-2-carbonyl)-amino]-biphenyl-4-sulfonylamino}-3-methyl-butyric acid] was 286 nM; that for `COCCCc1cccc2oc(COc3ccc(-c4ccc(S(=O)(=O)N[C@H](C(=O)O)C(C)C)cc4)cc3)c(C)c12` [Example 147, N-[(4′-{[4-(3-methoxypropyl)-3-methyl-1-benzofuran-2-yl]methoxy}-1,1′-biphenyl-4-yl)sulfonyl]-L-valine] was 1.9 nM. `O=C(Nc1ccc(-c2ccc(S(=O)(=O)N[C@@H](Cc3cnc[nH]3)C(=O)O)cc2)cc1)c1cc2ccccc2o1` [Example 17, N-({4′-[(1-Benzofuran-2-ylcarbonyl)amino]-1,1′-biphenyl-4-yl}sulfonyl)-L-Histidine]: the concentration for half-maximal inhibition (IC50) in assay [1] stood at 37 nM. The same measure, in the same setting: the value for `CC(C)[C@H](NS(=O)(=O)c1ccc(-c2ccc(NC(=O)c3csnn3)cc2)cc1)C(=O)O` [Example 163, N-({4′-[(1,2,3-thiadiazol-4-ylcarbonyl)amino]-1,1′-biphenyl-4-yl}sulfonyl)-L-valine] was 2 nM. On to `Cc1cc(-c2cccc3oc(C(=O)Nc4ccc(-c5ccc(S(=O)(=O)N[C@H](C(=O)O)C(C)C)cc5)cc4)c(C)c23)on1` [Example 35, L-3-Methyl-2-(4′-{[3-methyl-4-(3-methyl-isoxazol-5-yl)-benzofuran-2-carbonyl]-amino}-biphenyl-4-sulfonylamino)-butyric acid], for which the IC50 in assay [2] worked out at 9.9 nM.

Take `Cc1nc(-c2ccc(C(F)(F)F)cc2)sc1C(=O)Nc1ccc(-c2ccc(S(=O)(=O)N[C@H](C(=O)O)C(C)C)cc2)cc1` [Example 66, (S)-3-Methyl-2-(4′-{[4-methyl-2-(4-trifluoromethyl-phenyl)-thiazole-5-carbonyl]-amino}-biphenyl-4-sulfonylamino)-butyric acid]: the half-inhibitory concentration (IC50) in assay [2] was 121 nM.

Usually IC50 stands for the concentration at which inhibition is half-maximal.

For the origin of these results see patent US7420001B2 (Wyeth, priority 2003, dated 2008).
